Data on two compounds can be found in patent publication US20080038277A1, “Dna Pkinase Inhibitors For Treating Cancer And Diabetes” (priority 2004, published 2008).

For one assay, the system named is DNA-PK. The note with it: through proteolytic degradation of DNA-PK (ref. 31); cited from earlier work.
In another assay the test system is PKB. The note with it: cisplatin treatment (ref. 32); cited from earlier work.
The target of a further assay is T1, S473K1 (Homo sapiens, UniProt P78527).
T1 construct: purification and identification of this kinase from HEK293 cells; endogenous in cells; host or cells: HEK293 crude membrane fraction, purified over Q-Sepharose, Mono S and Mono Q
T1 sequence (P78527 whole entry, one chain of several): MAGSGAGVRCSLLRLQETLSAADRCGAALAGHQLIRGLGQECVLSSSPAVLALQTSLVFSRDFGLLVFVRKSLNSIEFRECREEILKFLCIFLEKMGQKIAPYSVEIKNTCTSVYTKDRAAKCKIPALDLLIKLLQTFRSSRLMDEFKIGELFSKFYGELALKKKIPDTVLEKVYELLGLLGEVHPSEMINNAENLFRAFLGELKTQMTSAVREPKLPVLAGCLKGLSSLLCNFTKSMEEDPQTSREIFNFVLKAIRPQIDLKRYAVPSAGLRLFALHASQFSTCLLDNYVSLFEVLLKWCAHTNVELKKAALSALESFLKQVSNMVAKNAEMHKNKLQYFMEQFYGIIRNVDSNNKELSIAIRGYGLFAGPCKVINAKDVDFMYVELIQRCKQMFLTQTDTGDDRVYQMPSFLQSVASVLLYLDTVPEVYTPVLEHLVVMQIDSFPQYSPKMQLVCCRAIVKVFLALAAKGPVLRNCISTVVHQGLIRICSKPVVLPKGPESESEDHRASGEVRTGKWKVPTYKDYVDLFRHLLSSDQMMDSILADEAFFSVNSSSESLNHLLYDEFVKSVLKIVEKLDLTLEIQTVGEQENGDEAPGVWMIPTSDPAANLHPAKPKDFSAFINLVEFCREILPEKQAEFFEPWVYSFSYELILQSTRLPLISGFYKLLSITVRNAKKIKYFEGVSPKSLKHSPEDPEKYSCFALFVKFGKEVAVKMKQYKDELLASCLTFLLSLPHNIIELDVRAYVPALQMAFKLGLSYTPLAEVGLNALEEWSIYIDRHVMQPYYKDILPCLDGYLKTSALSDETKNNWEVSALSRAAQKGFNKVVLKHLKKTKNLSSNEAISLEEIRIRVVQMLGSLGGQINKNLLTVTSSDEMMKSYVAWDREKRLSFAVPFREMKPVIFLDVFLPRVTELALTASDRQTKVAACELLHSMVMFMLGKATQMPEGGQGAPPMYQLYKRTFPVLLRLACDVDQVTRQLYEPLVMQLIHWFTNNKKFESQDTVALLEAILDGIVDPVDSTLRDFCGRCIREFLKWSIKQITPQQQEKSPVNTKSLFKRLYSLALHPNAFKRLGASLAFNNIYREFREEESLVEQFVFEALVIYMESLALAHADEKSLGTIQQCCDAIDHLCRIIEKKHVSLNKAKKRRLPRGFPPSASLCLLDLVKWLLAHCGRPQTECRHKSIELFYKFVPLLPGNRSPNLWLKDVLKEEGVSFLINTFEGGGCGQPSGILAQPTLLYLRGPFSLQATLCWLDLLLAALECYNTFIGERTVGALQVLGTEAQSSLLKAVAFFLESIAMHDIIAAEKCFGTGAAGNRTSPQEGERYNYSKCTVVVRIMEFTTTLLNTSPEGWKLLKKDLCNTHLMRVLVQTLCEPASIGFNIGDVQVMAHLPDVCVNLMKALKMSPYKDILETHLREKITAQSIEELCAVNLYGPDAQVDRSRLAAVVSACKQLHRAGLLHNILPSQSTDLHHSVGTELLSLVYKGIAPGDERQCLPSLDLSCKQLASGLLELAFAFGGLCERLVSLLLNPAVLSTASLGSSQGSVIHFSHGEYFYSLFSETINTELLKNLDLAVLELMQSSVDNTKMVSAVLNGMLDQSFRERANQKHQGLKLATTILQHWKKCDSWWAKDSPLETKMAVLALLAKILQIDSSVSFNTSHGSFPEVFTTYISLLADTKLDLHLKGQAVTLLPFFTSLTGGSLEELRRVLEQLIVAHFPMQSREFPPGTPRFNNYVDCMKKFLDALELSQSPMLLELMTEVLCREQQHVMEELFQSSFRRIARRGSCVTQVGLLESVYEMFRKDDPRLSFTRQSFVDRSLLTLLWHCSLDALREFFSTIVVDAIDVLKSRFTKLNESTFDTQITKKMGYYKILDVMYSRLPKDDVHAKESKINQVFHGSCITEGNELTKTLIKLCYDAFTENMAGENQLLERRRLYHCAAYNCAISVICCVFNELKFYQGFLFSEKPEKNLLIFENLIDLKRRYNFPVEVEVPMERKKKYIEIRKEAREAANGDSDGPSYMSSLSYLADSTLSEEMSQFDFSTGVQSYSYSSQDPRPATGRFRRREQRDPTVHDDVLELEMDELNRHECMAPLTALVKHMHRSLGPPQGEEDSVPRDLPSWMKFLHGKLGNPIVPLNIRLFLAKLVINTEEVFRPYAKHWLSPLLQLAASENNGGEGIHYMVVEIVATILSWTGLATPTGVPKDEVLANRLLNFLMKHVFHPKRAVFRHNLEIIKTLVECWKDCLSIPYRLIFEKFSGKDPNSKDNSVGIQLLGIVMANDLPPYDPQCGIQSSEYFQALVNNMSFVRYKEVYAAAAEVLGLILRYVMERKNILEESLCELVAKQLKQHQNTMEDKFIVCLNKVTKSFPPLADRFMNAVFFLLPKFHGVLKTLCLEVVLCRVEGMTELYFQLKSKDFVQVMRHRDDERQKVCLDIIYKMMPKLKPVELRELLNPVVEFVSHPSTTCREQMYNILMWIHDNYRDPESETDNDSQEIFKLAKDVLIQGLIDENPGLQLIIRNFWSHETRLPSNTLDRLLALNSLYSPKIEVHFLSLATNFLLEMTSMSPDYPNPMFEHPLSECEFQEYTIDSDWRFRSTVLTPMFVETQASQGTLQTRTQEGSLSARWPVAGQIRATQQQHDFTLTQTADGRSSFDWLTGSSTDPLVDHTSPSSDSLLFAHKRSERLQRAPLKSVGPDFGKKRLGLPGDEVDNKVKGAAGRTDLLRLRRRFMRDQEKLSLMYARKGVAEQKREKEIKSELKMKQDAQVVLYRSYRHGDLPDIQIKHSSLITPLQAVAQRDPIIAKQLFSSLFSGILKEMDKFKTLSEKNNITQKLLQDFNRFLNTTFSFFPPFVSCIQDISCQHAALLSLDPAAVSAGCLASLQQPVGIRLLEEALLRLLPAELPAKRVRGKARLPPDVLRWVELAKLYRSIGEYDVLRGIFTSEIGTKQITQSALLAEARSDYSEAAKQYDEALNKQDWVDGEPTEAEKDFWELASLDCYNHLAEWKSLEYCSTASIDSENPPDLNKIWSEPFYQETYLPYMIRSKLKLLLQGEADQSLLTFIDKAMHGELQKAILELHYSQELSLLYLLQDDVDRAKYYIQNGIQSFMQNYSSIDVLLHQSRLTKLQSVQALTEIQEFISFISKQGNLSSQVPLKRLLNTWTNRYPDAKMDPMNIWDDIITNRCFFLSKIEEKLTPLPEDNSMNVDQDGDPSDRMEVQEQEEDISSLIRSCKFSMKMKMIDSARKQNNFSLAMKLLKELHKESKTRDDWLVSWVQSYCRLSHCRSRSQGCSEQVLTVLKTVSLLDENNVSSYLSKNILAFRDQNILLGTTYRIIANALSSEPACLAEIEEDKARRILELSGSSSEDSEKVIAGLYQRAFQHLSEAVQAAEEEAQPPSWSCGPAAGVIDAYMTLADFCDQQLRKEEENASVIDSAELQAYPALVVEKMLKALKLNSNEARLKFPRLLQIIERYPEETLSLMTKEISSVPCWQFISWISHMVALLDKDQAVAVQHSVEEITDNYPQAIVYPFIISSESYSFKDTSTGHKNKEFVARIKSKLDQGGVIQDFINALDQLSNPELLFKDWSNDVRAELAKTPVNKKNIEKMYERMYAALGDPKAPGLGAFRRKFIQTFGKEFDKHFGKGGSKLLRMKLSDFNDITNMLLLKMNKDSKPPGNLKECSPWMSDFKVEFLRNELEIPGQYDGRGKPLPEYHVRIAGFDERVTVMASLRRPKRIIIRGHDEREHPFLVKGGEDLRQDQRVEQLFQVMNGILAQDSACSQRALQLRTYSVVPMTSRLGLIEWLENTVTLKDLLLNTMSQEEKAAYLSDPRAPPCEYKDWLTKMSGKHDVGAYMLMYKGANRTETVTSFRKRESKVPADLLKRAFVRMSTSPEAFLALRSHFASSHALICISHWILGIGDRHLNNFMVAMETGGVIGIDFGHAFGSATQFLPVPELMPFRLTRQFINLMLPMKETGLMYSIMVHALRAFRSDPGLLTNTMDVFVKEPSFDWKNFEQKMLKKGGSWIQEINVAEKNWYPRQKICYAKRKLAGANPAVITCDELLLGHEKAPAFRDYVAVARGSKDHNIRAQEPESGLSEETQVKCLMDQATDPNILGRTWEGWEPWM
Put plainly: S473K1 (Mono Q fraction 27) kinase assay with FSY peptide plus DNA, or GST-PKBα419-480 and pS473 Western blot. Type of assay: biochemical. To be noted: LY294002 5 μM, wortmannin 2 μM, staurosporine 5 μM; FSY peptide in presence of DNA and GST-PKBα419-480 (FIGS. 1E and F). As to the method:
FIG. 1. Identification and purification of S473K. (A-C) Mono Q fractions were assayed for S473K activity with the FSY (solid) or FAY peptides (open) in the presence (triangles) or absence (circles) of DNA. […] (B) A 10-μl aliquot of each fraction was subjected to 8% SDS-PAGE and proteins visualized by Coomassie Blue staining. (C) Western blotting of fractions with anti-DNA-PKcs and anti-Ku80/Ku70 antibodies. (D) Recombinant ΔPH-PKBαT309P (PKB) was first incubated with S473K1 (5 μl), 10 μg/ml fetal calf thymus DNA, and 100 μM ATP in kinase buffer for different times. Aliquots of the reaction mixture were removed for assay of PKB activity as described in (11) or for Western blotting with pS473 and pT308 phospho-specific antibodies. […].
All steps were performed at 4° C. Four hundred plates (Ø […]) of HEK293 cells were harvested in ice-cold phosphate-buffered saline and homogenized in ice-cold buffer A (50 mM Tris-HCl pH 7.4, 300 mM sucrose, 1 mM dithiothreitol, 10 mM sodium fluoride, 0.1 mM sodium orthovanadate, 20 nM okadiac acid, 1 mM phenylmethanesulfonyl fluoride and 1 mM benzamidine) using a polytron homogenizer. The nuclear fraction was removed by centrifuging at 1000 g for 10 min and the resulting supernatant was further centrifuged at 100,000 g for 60 min. […]
A general note: Immunoblotting shows a protein as a band on a membrane.

Another assay addresses T2, purified DNA-PK (Homo sapiens, UniProt P78527).
T2 construct: purified DNA-PK (from HeLa cells and human placenta) was tested; purchased Promega; host or cells: HeLa cells and human placenta
Put plainly: Purified DNA-PK phosphorylation of PKB (FSY peptide / GST-PKBα419-480). Type of assay: biochemical. The note with it: FSY peptide and GST-PKBα419-480; staurosporine 5 μM (FIGS. 2A and B). The method, then:
FIG. 2. DNA-PK phosphorylates and activates PKB in vitro. (A) Purified DNA-PK (Promega) (25 units) was assayed with 0.1 mg/ml of FSY, FAY and DNA-PK p53 substrate peptide (CTL) in the presence (+) or absence (−) of DNA. […]; aliquots of the reaction mixture were removed for assay of PKB activity as described in FIG. 1D or for Western blotting with pS473 and pT308 phospho-specific antibodies. (D) GST-PKBα419-480 and His-p53 (each 1 μg) were incubated with 25 units of purified DNA-PK and 100 μM [γ-32P]ATP in kinase buffer (11). The reactions were terminated and analyzed on 10% SDS-PAGE followed by autoradiography or 32P determination in excised gel slices.
An antibody specific for PKB phosphorylated on Thr-308 (pT308) was purchased from Cell Signaling Technologies. An antibody specific for PKB phosphorylated on Ser-473 (pS473) was produced and purified as previously described (33). Polyclonal anti-PKB antibody (antibody10) (34) and monoclonal anti-PKB (A4D6) (35) have been described previously. Anti-Ku80, and anti-Ku 70 antibodies were purchased from Transduction Labs. Anti-DNA-PKcs (monoclonal G4) was from Santa Cruz Inc. Double-stranded fetal calf thymus DNA was from Sigma, and purified human DNA-PK protein and p53 substrate peptide […] (36) from Promega. […]

In the case of `N.N.[Cl][Pt][Cl]` [cisplatin], the DNA-PK activity result with DNA-PK is “decrease”. In the assay on PKB, the “PKB activity and Ser-473 phosphorylation” value is recorded as “inhibited”.
As to `CN[C@@H]1C[C@H]2O[C@@](C)([C@@H]1OC)n1c3ccccc3c3c4c(c5c6ccccc6n2c5c31)C(=O)NC4` [staurosporine], the S473K1 activity result at S473K1 is given as “not affected”. The “phosphorylation of PKB catalyzed by purified DNA-PK” value at purified DNA-PK is on record as “resistant”.
